From ChEMBL document CHEMBL1201862, “PubChem BioAssay data set” (2004)
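A five-concentration, 48-hour dose response in 96-well plates underlies each endpoint, interpolated linearly between surrounding concentrations. GI50 is the concentration that inhibits growth by half.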 Active and inactive are the calls of the source. Rule as the data show it: active = GI50 up to about 1.1 µM and inactive = higher.

What was measured:
Assay in all cases: growth of human tumour cells (NCI), 48 h
BT-549 = tested on: BT-549
EKVX = tested on: EKVX
HCC 2998 = tested on: HCC 2998
HCT-116 = tested on: HCT-116
Hs-578T = tested on: Hs-578T
NCI-H23 = tested on: NCI-H23
OVCAR-4 = tested on: OVCAR-4
OVCAR-5 = tested on: OVCAR-5
PC-3 = tested on: PC-3
RXF 393 = tested on: RXF 393
SF-295 = tested on: SF-295
SF-539 = tested on: SF-539
SK-MEL-2 = tested on: SK-MEL-2
SK-MEL-5 = tested on: SK-MEL-5
SN12C = tested on: SN12C
SW-620 = tested on: SW-620
UACC-257 = tested on: UACC-257
A498 = tested on: A498

Compound | GI50 (BT-549) | GI50 (EKVX) | GI50 (HCC 2998) | GI50 (HCT-116) | GI50 (Hs-578T) | GI50 (NCI-H23) | GI50 (OVCAR-4) | GI50 (OVCAR-5) | GI50 (PC-3) | GI50 (RXF 393) | GI50 (SF-295) | GI50 (SF-539) | GI50 (SK-MEL-2) | GI50 (SK-MEL-5) | GI50 (SN12C) | GI50 (SW-620) | GI50 (UACC-257) | GI50 (A498)
Cc1ccc([C@@H]2[C@@H](C(=O)c3ccccn3)[C@H](c3ccc(C)cc3)C[C@](O)(c3ccccn3)[C@H]2C(=O)c2ccccn2)cc1 | > 27.4 µM (inactive) | 0.728 µM (active) | 7.35 µM (inactive) | 2.89 µM (inactive) | 26.5 µM (inactive) | 18.8 µM (inactive) | 4.98 µM (inactive) | 8.93 µM (inactive) | 6.56 µM (inactive) | 3.15 µM (inactive) | 4.21 µM (inactive) | 2.08 µM (inactive) | 3.46 µM (inactive) | 3.71 µM (inactive) | 3.18 µM (inactive) | > 22.6 µM (inactive) | 8.04 µM (inactive) | –
CCCn1c(=O)c(N2CCN(c3ccccc3)CC2)nc2sc3ccccc3c21 | 97.3 µM (inactive) | > 100 µM (inactive) | – | > 100 µM (inactive) | > 100 µM (inactive) | > 100 µM (inactive) | > 100 µM (inactive) | > 100 µM (inactive) | > 100 µM (inactive) | – | > 100 µM (inactive) | > 100 µM (inactive) | > 100 µM (inactive) | > 100 µM (inactive) | > 100 µM (inactive) | > 100 µM (inactive) | > 100 µM (inactive) | > 100 µM (inactive)
FC(F)(Sc1ccccc1)c1nc2ccccc2o1 | 55.5 µM (inactive) | – | 43.3 µM (inactive) | 28.6 µM (inactive) | – | 91 µM (inactive) | 97.1 µM (inactive) | 59.7 µM (inactive) | 35.5 µM (inactive) | 28.5 µM (inactive) | 48.5 µM (inactive) | 63.8 µM (inactive) | 67.8 µM (inactive) | 50 µM (inactive) | 74.5 µM (inactive) | 61.1 µM (inactive) | > 100 µM (inactive) | 92.7 µM (inactive)
CSC1=N/C(=C\c2ccco2)C(=O)N1CN1CCCCC1 | – | > 100 µM (inactive) | – | 50.4 µM (inactive) | > 100 µM (inactive) | > 100 µM (inactive) | – | > 100 µM (inactive) | > 100 µM (inactive) | – | > 100 µM (inactive) | – | > 100 µM (inactive) | 55.1 µM (inactive) | 65.3 µM (inactive) | 36.1 µM (inactive) | – | > 100 µM (inactive)
C#C[C@]1(O)CC[C@H]2[C@@H]3CCC4=C/C(=N/NC(=O)c5cccc6c(=O)c7ccccc7[nH]c56)CCC4[C@H]3CC[C@@]21C (some centres undefined) | 19.2 µM (inactive) | 77.8 µM (inactive) | 47.9 µM (inactive) | 53 µM (inactive) | 32.1 µM (inactive) | 27.1 µM (inactive) | 45.8 µM (inactive) | > 100 µM (inactive) | 34.7 µM (inactive) | – | 43.4 µM (inactive) | 34.7 µM (inactive) | 33 µM (inactive) | 24.4 µM (inactive) | > 100 µM (inactive) | 49.8 µM (inactive) | 35.5 µM (inactive) | –
COC(=O)C/N=C1\NC(=S)N(Cc2ccc(OC)cc2)C12CCCC2 | > 100 µM (inactive) | > 100 µM (inactive) | > 100 µM (inactive) | > 100 µM (inactive) | – | > 100 µM (inactive) | > 100 µM (inactive) | > 100 µM (inactive) | > 100 µM (inactive) | > 100 µM (inactive) | > 100 µM (inactive) | > 100 µM (inactive) | > 100 µM (inactive) | – | > 100 µM (inactive) | > 100 µM (inactive) | > 100 µM (inactive) | > 100 µM (inactive)
O=c1c2cc(Br)cc(Br)c2[nH]c(=S)n1-c1ccc(/N=N/c2ccc(O)c3cccnc23)cc1 | – | 38.6 µM (inactive) | – | 26.2 µM (inactive) | > 100 µM (inactive) | – | 57.9 µM (inactive) | 74.5 µM (inactive) | 39.9 µM (inactive) | 55.2 µM (inactive) | 64.9 µM (inactive) | 11.5 µM (inactive) | > 100 µM (inactive) | 11.9 µM (inactive) | 44.5 µM (inactive) | 29.8 µM (inactive) | 50.5 µM (inactive) | > 100 µM (inactive)
O=c1cc(-c2ccncc2)[nH]c2cc3c(cc12)OCO3 | – | > 100 µM (inactive) | > 100 µM (inactive) | 97.3 µM (inactive) | > 100 µM (inactive) | > 100 µM (inactive) | > 100 µM (inactive) | > 100 µM (inactive) | – | > 100 µM (inactive) | > 100 µM (inactive) | > 100 µM (inactive) | > 100 µM (inactive) | > 100 µM (inactive) | > 100 µM (inactive) | > 100 µM (inactive) | > 100 µM (inactive) | > 100 µM (inactive)
CCOC(OCC)N1C(=O)C2(C(OCC)OCC)CC3C(OC(=O)N3N)c3cccc1c32 (centres undefined) | > 100 µM (inactive) | > 100 µM (inactive) | > 100 µM (inactive) | > 100 µM (inactive) | – | > 100 µM (inactive) | > 100 µM (inactive) | > 100 µM (inactive) | – | > 100 µM (inactive) | > 100 µM (inactive) | > 100 µM (inactive) | – | > 100 µM (inactive) | > 100 µM (inactive) | > 100 µM (inactive) | > 100 µM (inactive) | 61.2 µM (inactive)
Cc1cccc(/C=N\NC(=S)N2CCCCC2)n1 | – | 0.673 µM (active) | 9.77 µM (inactive) | < 0.01 µM (active) | 26.5 µM (inactive) | 0.0689 µM (active) | < 0.01 µM (active) | < 0.01 µM (active) | 0.0435 µM (active) | 0.145 µM (active) | 0.211 µM (active) | 0.156 µM (active) | 0.612 µM (active) | 0.0229 µM (active) | 0.181 µM (active) | 0.334 µM (active) | < 0.01 µM (active) | 0.0241 µM (active)
O=C1C2=Cc3ccccc3OC2(O)Oc2cc(O)cc(O)c21 (centres undefined) | > 100 µM (inactive) | > 100 µM (inactive) | > 100 µM (inactive) | > 100 µM (inactive) | – | 59.2 µM (inactive) | 92.3 µM (inactive) | > 100 µM (inactive) | > 100 µM (inactive) | > 100 µM (inactive) | > 100 µM (inactive) | > 100 µM (inactive) | > 100 µM (inactive) | > 100 µM (inactive) | > 100 µM (inactive) | > 100 µM (inactive) | > 100 µM (inactive) | > 100 µM (inactive)
COc1c2cc([N+](=O)[O-])cc1CN(C(=O)C(F)(F)F)CCOCCN(C(=O)C(F)(F)F)C2 | 70.6 µM (inactive) | > 100 µM (inactive) | – | > 100 µM (inactive) | > 100 µM (inactive) | > 100 µM (inactive) | > 100 µM (inactive) | > 100 µM (inactive) | > 100 µM (inactive) | – | > 100 µM (inactive) | > 100 µM (inactive) | > 100 µM (inactive) | > 100 µM (inactive) | > 100 µM (inactive) | > 100 µM (inactive) | > 100 µM (inactive) | > 100 µM (inactive)
CCOC(=O)/C=C(\C(=O)OCC)n1ccc(N)nc1=O | 38.6 µM (inactive) | 62.8 µM (inactive) | > 100 µM (inactive) | > 100 µM (inactive) | > 100 µM (inactive) | > 100 µM (inactive) | 72.9 µM (inactive) | 33 µM (inactive) | > 100 µM (inactive) | – | > 100 µM (inactive) | > 100 µM (inactive) | > 100 µM (inactive) | > 100 µM (inactive) | > 100 µM (inactive) | 56.4 µM (inactive) | > 100 µM (inactive) | –
COc1cc(C=O)cc(/C=N/c2ccccn2)c1O | – | 23.4 µM (inactive) | 46.1 µM (inactive) | 35.4 µM (inactive) | 4.63 µM (inactive) | > 100 µM (inactive) | > 100 µM (inactive) | 15.8 µM (inactive) | 3.64 µM (inactive) | 1.56 µM (inactive) | 5.47 µM (inactive) | 3.01 µM (inactive) | 2.57 µM (inactive) | 2.39 µM (inactive) | 12.6 µM (inactive) | 31.6 µM (inactive) | 8.59 µM (inactive) | 9.64 µM (inactive)
COc1ccc(/N=N/c2c(C)c(C#N)c(=S)n(C3OC(CO)C(O)C(O)C3O)c2C)cc1 (centres undefined) | 32.7 µM (inactive) | – | – | 31.6 µM (inactive) | 41.4 µM (inactive) | 35.6 µM (inactive) | 57.4 µM (inactive) | > 100 µM (inactive) | 31.5 µM (inactive) | > 100 µM (inactive) | 52.1 µM (inactive) | 48.3 µM (inactive) | 71.3 µM (inactive) | 14.5 µM (inactive) | – | 44.1 µM (inactive) | 71.9 µM (inactive) | –
COc1ccc(N[C@H]([C@@H](c2ccccc2)[S+]([O-])c2ccc(C)cc2)C(F)(F)F)cc1 (some centres undefined) | 38.6 µM (inactive) | 44 µM (inactive) | > 100 µM (inactive) | 29.4 µM (inactive) | – | 41.5 µM (inactive) | 26 µM (inactive) | 40.6 µM (inactive) | 21.1 µM (inactive) | 53.5 µM (inactive) | 82.8 µM (inactive) | 22.5 µM (inactive) | 40 µM (inactive) | 35.8 µM (inactive) | 71.8 µM (inactive) | 61.1 µM (inactive) | > 100 µM (inactive) | –
CC(=O)c1cc(CC2Cc3cc4c(cc3C2=O)CCC4)cc2c1CCC2 (centres undefined) | 15.4 µM (inactive) | 37.8 µM (inactive) | 46 µM (inactive) | 26.1 µM (inactive) | 35.5 µM (inactive) | 15 µM (inactive) | 54.8 µM (inactive) | > 100 µM (inactive) | 10.1 µM (inactive) | – | 20.4 µM (inactive) | 70.5 µM (inactive) | 71.1 µM (inactive) | 14 µM (inactive) | 47.4 µM (inactive) | 49.5 µM (inactive) | 29.9 µM (inactive) | 84.7 µM (inactive)
